Laboratory results from ChEMBL document CHEMBL1201862, “PubChem BioAssay data set” (2004).
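These data come from cells grown in 96-well plates and exposed to compound for 48 hours at five concentrations. The concentration for 50% growth inhibition is given as GI50.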 Calls of active or inactive are those of the source. Cut-off read from the data, not from the text of the source: active = GI50 up to about 1.1 µM and inactive = higher.

What was measured:
Assay in all cases: DTP human tumour cell line panel, 48 h
DLD-1 = system: DLD-1
DMS-273 = system: DMS-273
KM-20L2 = system: KM-20L2
LXFL 529 = system: LXFL 529
RXF 631 = system: RXF 631
SNB-78 = system: SNB-78
XF498 = system: XF498
DMS-114 = system: DMS-114
HOP-18 = system: HOP-18

Measured: GI50

COc1cc(/C=C(\NC(=O)c2ccccc2)c2nc3cncnc3[nH]2)cc(OC)c1OC
inactive: DLD-1 > 100 µM | DMS-273 > 100 µM | KM-20L2 > 100 µM | LXFL 529 > 100 µM | RXF 631 > 100 µM | SNB-78 > 100 µM | XF498 > 100 µM

CNc1nc(N)cc(O)n1
inactive: DLD-1 > 100 µM | DMS-114 > 100 µM | DMS-273 > 100 µM | KM-20L2 > 100 µM | LXFL 529 > 100 µM | SNB-78 > 100 µM

CC(C)Cc1ccc(C(C)/C=C2\CCC(CN(C)C)C2=O)cc1 (configuration not stated)
inactive: DLD-1 10.7 µM | DMS-114 19.2 µM | HOP-18 17.6 µM | KM-20L2 24.3 µM | LXFL 529 9.35 µM | SNB-78 17.5 µM | XF498 20 µM

O=C(CCc1ccccc1)On1nnc2ccccc2c1=O
inactive: DLD-1 > 100 µM | DMS-114 > 100 µM | DMS-273 > 100 µM | KM-20L2 > 100 µM | LXFL 529 > 100 µM | SNB-78 > 100 µM

CCOC(=O)C(=O)C=P(c1ccccc1)(c1ccccc1)c1ccccc1
inactive: DLD-1 > 100 µM | DMS-114 > 100 µM | DMS-273 > 100 µM | HOP-18 > 100 µM | KM-20L2 > 100 µM | LXFL 529 > 100 µM | RXF 631 > 100 µM | SNB-78 > 100 µM

C/C(=N\NS(=O)(=O)c1ccc(C)cc1)c1ccc[n+]([O-])n1
inactive: DLD-1 50.1 µM | DMS-114 > 100 µM | DMS-273 > 100 µM | HOP-18 > 100 µM | KM-20L2 > 100 µM | LXFL 529 45.2 µM | XF498 > 100 µM

O=C1C2c3[nH]c4ccccc4c3C3CCCC3C2C(=O)N1c1ccccc1 (configuration not stated)
inactive: DLD-1 > 100 µM | DMS-114 > 100 µM | DMS-273 > 100 µM | LXFL 529 > 100 µM | SNB-78 > 100 µM | XF498 12 µM

O=[PH](O)c1ccccn1
inactive: DLD-1 > 100 µM | DMS-114 > 100 µM | DMS-273 > 100 µM | KM-20L2 > 100 µM | LXFL 529 > 100 µM | SNB-78 > 100 µM | XF498 > 100 µM

CCOc1ccc(-c2oc(/C=N/NS(=O)(=O)c3ccc(C)cc3)c([N+](=O)[O-])c2-c2ccc(OCC)cc2)cc1
inactive: DLD-1 4.98 µM | DMS-114 3.21 µM | DMS-273 8.41 µM | KM-20L2 11.2 µM | LXFL 529 9.93 µM | SNB-78 9.73 µM

COc1ccc(OC)c(N2CC(N)C2=O)c1 (configuration not stated)
inactive: DMS-273 > 100 µM | HOP-18 > 100 µM | KM-20L2 > 100 µM | RXF 631 > 100 µM | XF498 > 100 µM

C[C@H](CCC1SC1(C)C)C1CCC2(C)C3=C(CC[C@]12C)[C@@]1(C)CC[C@H](O)C(C)(C)C1CC3 (some centres not stated)
inactive: DLD-1 > 100 µM | DMS-114 > 100 µM | DMS-273 > 100 µM | HOP-18 > 100 µM | KM-20L2 > 100 µM | LXFL 529 > 100 µM | XF498 > 100 µM

C[C@@]1(Cc2ccccc2)C(=O)N2[C@@H](CO)C(c3ccccc3)O[C@]2(C)c2ccccc21 (some centres not stated)
inactive: DLD-1 > 100 µM | DMS-114 > 100 µM | DMS-273 > 100 µM | KM-20L2 > 100 µM | LXFL 529 > 100 µM | SNB-78 > 100 µM

O=C1c2ccccc2C(=O)c2c1ccc(O)c2O [ATHRAQUINONES A]
inactive: DLD-1 43.4 µM | DMS-273 35.9 µM | LXFL 529 43.2 µM | XF498 39.1 µM
